{"source": "patent US11136351B2", "about": "(priority 2016, dated 2021)", "key": {"[1]": {"test_system": "HVA calcium channels in rat DRG neurons", "format": "cell-based"}, "mouse HVA Ca^2+ channel": {"test_system": "mouse HVA Ca^2+ channel", "format": "cell-based", "conditions": "50 μM"}, "human α9α10 nAChRs": {"target": "human α9α10 nAChRs (Homo sapiens, UniProt Q9GZZ6+Q9UGM1)", "sequence (Q9UGM1 26-479 limits assumed)": "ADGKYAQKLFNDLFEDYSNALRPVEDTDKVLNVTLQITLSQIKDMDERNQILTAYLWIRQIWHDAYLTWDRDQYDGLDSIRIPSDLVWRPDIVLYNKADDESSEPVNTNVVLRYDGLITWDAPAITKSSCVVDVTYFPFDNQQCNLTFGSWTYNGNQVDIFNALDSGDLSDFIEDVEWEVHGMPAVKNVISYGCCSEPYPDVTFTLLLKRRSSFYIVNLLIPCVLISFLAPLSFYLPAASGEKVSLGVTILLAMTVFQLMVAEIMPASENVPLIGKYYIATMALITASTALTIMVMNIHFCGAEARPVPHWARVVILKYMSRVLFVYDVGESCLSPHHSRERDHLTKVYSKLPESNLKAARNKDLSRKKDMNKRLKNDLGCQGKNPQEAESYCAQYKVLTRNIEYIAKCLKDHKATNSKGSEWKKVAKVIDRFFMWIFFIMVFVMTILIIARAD", "sequence (Q9GZZ6 25-450)": "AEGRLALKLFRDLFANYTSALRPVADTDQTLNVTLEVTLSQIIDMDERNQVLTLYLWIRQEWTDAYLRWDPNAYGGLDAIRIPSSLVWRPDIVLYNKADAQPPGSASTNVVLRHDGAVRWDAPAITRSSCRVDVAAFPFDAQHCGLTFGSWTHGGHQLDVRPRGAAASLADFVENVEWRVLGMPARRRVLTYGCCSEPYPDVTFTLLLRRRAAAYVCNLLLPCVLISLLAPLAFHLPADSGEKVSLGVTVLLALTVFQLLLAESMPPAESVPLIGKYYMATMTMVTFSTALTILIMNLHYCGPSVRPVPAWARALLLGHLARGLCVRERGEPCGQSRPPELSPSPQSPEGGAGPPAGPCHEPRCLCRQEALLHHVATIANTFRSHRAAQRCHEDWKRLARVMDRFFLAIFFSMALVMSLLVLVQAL", "conditions": "cited from earlier work"}, "α7 nAChRs": {"target": "α7 nAChRs (Homo sapiens, UniProt P36544)", "sequence (P36544 23-502 limits assumed)": "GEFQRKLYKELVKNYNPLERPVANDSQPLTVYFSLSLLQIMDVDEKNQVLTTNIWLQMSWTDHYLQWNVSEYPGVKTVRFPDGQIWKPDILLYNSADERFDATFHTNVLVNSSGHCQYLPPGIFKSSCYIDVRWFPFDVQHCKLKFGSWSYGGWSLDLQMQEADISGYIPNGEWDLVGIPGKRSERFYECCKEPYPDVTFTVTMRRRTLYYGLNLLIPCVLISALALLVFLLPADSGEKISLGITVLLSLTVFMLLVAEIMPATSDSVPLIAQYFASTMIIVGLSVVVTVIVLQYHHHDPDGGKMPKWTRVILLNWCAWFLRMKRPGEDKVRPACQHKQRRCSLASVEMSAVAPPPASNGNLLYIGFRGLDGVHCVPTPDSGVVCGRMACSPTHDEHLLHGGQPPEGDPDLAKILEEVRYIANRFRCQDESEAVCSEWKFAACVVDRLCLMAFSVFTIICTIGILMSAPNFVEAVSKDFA", "conditions": "cited from earlier work"}, "rat α9α10 nAChRs": {"target": "rat α9α10 nAChRs (Rattus norvegicus, UniProt P43144+Q9JLB5)", "sequence (P43144 26-479 limits assumed)": "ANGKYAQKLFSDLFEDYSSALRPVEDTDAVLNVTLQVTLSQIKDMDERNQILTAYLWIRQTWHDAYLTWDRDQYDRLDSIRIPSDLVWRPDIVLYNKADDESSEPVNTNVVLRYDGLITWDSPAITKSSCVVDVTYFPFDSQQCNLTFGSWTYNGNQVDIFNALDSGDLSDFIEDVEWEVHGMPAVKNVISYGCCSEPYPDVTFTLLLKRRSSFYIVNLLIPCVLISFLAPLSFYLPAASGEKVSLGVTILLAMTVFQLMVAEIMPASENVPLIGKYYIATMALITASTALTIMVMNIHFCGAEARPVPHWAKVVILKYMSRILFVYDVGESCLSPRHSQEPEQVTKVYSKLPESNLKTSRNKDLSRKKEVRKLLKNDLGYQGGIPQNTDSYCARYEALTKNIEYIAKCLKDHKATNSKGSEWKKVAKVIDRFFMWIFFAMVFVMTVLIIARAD", "sequence (Q9JLB5 25-447 limits assumed)": "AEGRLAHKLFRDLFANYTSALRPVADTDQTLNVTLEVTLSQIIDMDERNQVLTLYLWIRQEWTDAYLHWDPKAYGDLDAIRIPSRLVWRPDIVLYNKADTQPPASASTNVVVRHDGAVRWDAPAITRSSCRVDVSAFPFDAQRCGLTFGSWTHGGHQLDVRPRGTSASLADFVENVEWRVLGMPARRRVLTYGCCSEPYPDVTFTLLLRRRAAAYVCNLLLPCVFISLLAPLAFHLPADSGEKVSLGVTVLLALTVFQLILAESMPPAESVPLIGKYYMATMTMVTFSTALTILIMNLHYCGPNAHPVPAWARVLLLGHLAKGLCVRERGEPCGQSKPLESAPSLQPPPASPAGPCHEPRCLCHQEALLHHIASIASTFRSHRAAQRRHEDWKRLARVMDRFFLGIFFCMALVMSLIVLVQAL", "conditions": "cited from earlier work"}, "human α9α10 nAChR": {"target": "T1, human α9α10 nAChR (Homo sapiens, UniProt Q9GZZ6+Q9UGM1)", "T1 construct": "expressed in transfected cells; host or cells: Xenopus laevis oocytes", "T1 sequence (Q9UGM1 26-479 limits assumed)": "as the sequence (Q9UGM1 26-479 limits assumed) above", "T1 sequence (Q9GZZ6 25-450)": "as the sequence (Q9GZZ6 25-450) above", "format": "cell-based", "conditions": "1 μM"}}, "note": "Structures can show the parent of a compound that is named as a salt. Where two headings read alike, the source gives them in different places."}
{"compound": "NC[C@H](CC(=O)O)c1ccc(Cl)cc1", "note": "[Baclofen, R-(+)-baclofen hydrochloride]", "values": [{"measurement": "reversibility of IBa inhibition", "setting": "[1]", "value": "reversible on washout"}, {"measurement": "IBa I/Icontrol ± SEM (n)", "setting": "[1]; 50 μM", "value": "0.64 ± 0.018 (36)"}, {"measurement": "fraction of total IBa suppressed", "setting": "[1]; 50 μM", "value": "~35", "unit": "%"}, {"measurement": "rat HVA Ca^2+ channel I/Icontrol ± SEM (n)", "setting": "[1]; 50 μM", "value": "0.64 ± 0.01 (33)"}, {"measurement": "mouse HVA Ca^2+ channel I/Icontrol ± SEM (n)", "setting": "mouse HVA Ca^2+ channel", "value": "0.60 ± 0.03 (11)"}, {"measurement": "peak ICa inhibition", "setting": "mouse HVA Ca^2+ channel", "value": "41.5±2.7", "unit": "%"}]}
{"compound": "Vc1.1", "values": [{"measurement": "IC50", "setting": "human α9α10 nAChRs", "value": 765, "unit": "nM"}, {"measurement": "IC50", "setting": "α7 nAChRs", "value": "~7100", "unit": "nM"}, {"measurement": "IC50", "setting": "rat α9α10 nAChRs", "value": 64, "unit": "nM"}, {"measurement": "human α9α10 nAChR I/Icontrol ± SEM (n)", "setting": "human α9α10 nAChR", "value": "0.57 ± 0.020 (17)"}, {"measurement": "inhibition of HVA calcium currents by globular, ribbon and beads isomers", "setting": "[1]", "value": "found to inhibit HVA calcium currents"}, {"measurement": "rat HVA Ca^2+ channel I/Icontrol ± SEM (n)", "setting": "[1]; 1 μM", "value": "0.73 ± 0.03 (4)"}]}
